Consider five compounds from ChEMBL document CHEMBL1201862, “PubChem BioAssay data set” (2004).

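A five-concentration, 48-hour dose response in 96-well plates underlies each endpoint, interpolated linearly between surrounding concentrations. GI50 is the concentration that inhibits growth by half.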 The source made the active and inactive calls. Rule as the data show it: active = GI50 up to about 1.1 µM and inactive = higher. A value given as a limit tells only on which side of the number the result lay.

Some test systems named below: UACC-62; MDA-MB-435; DU-145; K562; UACC-257; SNB-19; T47D; M14; HCT-116; OVCAR-8; NCI-H226; IGROV-1; HCT-15; U-251; MDA-MB-231; CCRF-CEM; CAKI-1; A498.
Experiment in all cases: growth of human tumour cells (NCI), 48 h

Regarding `Cc1cc(N(CCCCl)CCCCl)ccc1/C=N/c1cccc(Cl)c1`, the GI50 with UACC-62 is 0.74 µM (active); in the assay on MDA-MB-435, 17.7 µM (inactive); in the assay with DU-145, 14.7 µM (inactive); with K562, 7.26 µM (inactive); in the assay on UACC-257, 0.428 µM (active); with SNB-19, 15.3 µM (inactive). For the same compound, the GI50 was 0.45 µM (active) in the assay on T47D; 18.5 µM (inactive) with M14; 25 µM (inactive) with HCT-116; 11.9 µM (inactive) in the assay on OVCAR-8; < 0.01 µM (active) with NCI-H226; 13.2 µM (inactive) with IGROV-1. In addition, the figures for the GI50 with HCT-15, in the assay on U-251 and in the assay with MDA-MB-231 were 13.6 µM, 15.7 µM (inactive) and 14 µM (inactive), respectively.
On to `Cn1c2ccccc2c2c3c(c4c5ccccc5n(C)c4c21)C(=O)NC3=O`, for which the GI50 was > 32.9 µM (inactive) in the assay on UACC-62; > 42.7 µM (inactive) in the assay with MDA-MB-435; > 100 µM (inactive) with DU-145; > 54.6 µM (inactive) in the assay on K562; > 100 µM (inactive) in the assay with CCRF-CEM; > 65.2 µM (inactive) in the assay with UACC-257. The GI50 is 15.3 µM (inactive) with SNB-19; 46.1 µM (inactive) in the assay on T47D; > 41.3 µM (inactive) in the assay with M14; > 64.1 µM (inactive) in the assay with HCT-116; 18.7 µM (inactive) in the assay with OVCAR-8; 40.7 µM (inactive) in the assay on NCI-H226. Moreover, the GI50 is 0.0256 µM (active) in the assay with CAKI-1; 5.71 µM (inactive) in the assay with IGROV-1; above 100 µM with HCT-15; 16.8 µM (inactive) with U-251; 13.4 µM (inactive) in the assay with MDA-MB-231.
On to `CCCCCNC(=O)C1C(=O)N(CCCCC)C(=O)/C1=N\N` (configuration not stated), for which the GI50 in the assay on UACC-62 is 43.5 µM (inactive); in the assay on K562 it was 34.4 µM (inactive); with CCRF-CEM it was 49.2 µM (inactive); in the assay on UACC-257 it was > 100 µM (inactive); in the assay on SNB-19, 35.2 µM (inactive); with M14 it was 57.9 µM (inactive). In addition, the GI50 with OVCAR-8 was 49.2 µM (inactive); with IGROV-1, 53 µM (inactive); with A498 it was > 100 µM (inactive); in the assay with HCT-15 it was 59.2 µM; in the assay on U-251 it was 30.1 µM (inactive).
Regarding `C[N+]1(c2ccccc2)C=C(c2ccccc2)SC1=S` (configuration not stated), the GI50 is > 100 µM (inactive) in the assay with UACC-62; > 100 µM (inactive) in the assay with MDA-MB-435; 3.9 µM (inactive) with DU-145; 42.7 µM (inactive) in the assay with K562; 48.9 µM (inactive) in the assay on UACC-257; > 100 µM (inactive) in the assay with SNB-19. Further, the GI50 in the assay with T47D was 1.67 µM (inactive); in the assay with M14, > 100 µM (inactive); in the assay on HCT-116, > 100 µM (inactive); with OVCAR-8, > 100 µM (inactive); with NCI-H226 it was > 100 µM (inactive); with CAKI-1, > 100 µM (inactive). Besides, the GI50 was > 100 µM (inactive) in the assay on IGROV-1; 6.12 µM (inactive) in the assay with A498; above 100 µM in the assay with HCT-15; > 100 µM (inactive) with U-251; > 100 µM (inactive) in the assay on MDA-MB-231.
With `c1ccc(-c2cn3nc(N4CCOCC4)sc3n2)cc1`, the GI50 with UACC-62, with MDA-MB-435, in the assay with DU-145, in the assay on K562, with CCRF-CEM and in the assay with UACC-257 was > 100 µM (inactive) in each case. The GI50 is > 100 µM (inactive) with SNB-19; 56.8 µM (inactive) with T47D; > 100 µM (inactive) in the assay on M14; > 100 µM (inactive) with HCT-116; 31.8 µM (inactive) in the assay with OVCAR-8; > 100 µM (inactive) in the assay with NCI-H226. Also, the GI50 in the assay with CAKI-1 is 16.6 µM (inactive); in the assay on IGROV-1 it was 62.4 µM (inactive); with HCT-15, above 100 µM; in the assay with U-251, 48.6 µM (inactive); in the assay with MDA-MB-231 it was 85.9 µM (inactive).
